Measurements published in patent US5354748A, “Oral antibacterial compositions and method for the improvement of gastrointestinal absorption of penem or carbapenem antibiotics” (Suntory Limited, priority 1991, dated 1994).
Where two headings read alike, the source gives them in different places.

What was measured:
[1] = Plasma concentration and urinary excretion of penem in dogs, capsules with glutathione (Example 7); assay type: in vivo; conditions: dog, po, 75 mg; for AUC at 4 h / Cmax: plasma
Protocol: Namely, the penemcarboxylate and glutathione were mixed in amounts of 75 mg (titer) and 75, 15 or 3.75 mg, respectively, per capsule. The resultant mixed powder was filled in a capsule. Capsules were prepared in the manner described above.

[2] = Oral absorption of penem in rats with simultaneous administration of cilastatin (Example 3); assay type: in vivo, Sprague-Dawley male rats; conditions: rat; for AUC at 2 h / Cmax / bioavailability: plasma, po, 57.1 mg/kg, oral 57.1 mg (titer)/Kg; for bioavailability: read-out: Absorption (Oral Absorption Percentage A)
Protocol: Those compositions were separately and orally administered to seven-week-old, Sprague-Dawley male rats to give a dose of 57.1 mg (titer)/Kg in terms of the penem carboxylate. The blood was drawn from the femoral artery via a polyethylene catheter over 2.0 hours after the administration.

[3] = Plasma concentration and urinary excretion of penem in dogs, capsules with glutathione (Example 7); assay type: in vivo; conditions: dog; for AUC at 4 h / Cmax: plasma; for AUC at 4 h / Cmax / dose excreted at 24 h: po, 75 mg, oral capsule 75 mg (titer); for dose excreted at 24 h: urine, read-out: Excretion into urine
[4] = Plasma concentration of penem in rats, oral penem with oral cilastatin (Example 5); assay type: in vivo, Sprague-Dawley male rats; conditions: rat; for AUC at 1.5 h / Cmax: plasma, po, 57.1 mg/kg, oral 57.1 mg (titer)/Kg; for Cmax: read-out: Highest concentration in plasma
Protocol: (§1) Seven-week-old Sprague-Dawley male rats were orally administered with 57.1 mg (titer)/Kg of sodium (1'R,2"R,5R,6S)-6-(1'-hydroxyethyl)-2-(2"-tetrahydrofuranyl)penem-3-carboxylate 2.5 hydrate. At the same time, cilastatin was orally administered at 7.17, 0.717 or 0.0717 mg/Kg. The blood was collected during the period of from 0.1 to 1.5 hours after the administration. The concentrations of the free acid of the penem in plasma samples were measured by high performance liquid chromatography (HPLC) to determine the highest concentration in plasma and the area under the plasma concentration:time curve (AUC).

[5] = dog, in vivo
Protocol: Capsules were prepared by filling capsules with a 12.6:1 or 126:1 (by molar ratio) mixture of sodium (1'R,2"R,5R,6S)-6-(1'-hydroxyethyl)-2-(2"-tetrahydrofuranyl)penem-3-carboxylate 2.5 hydrate and cilastatin, namely, with a powder mixture consisting of 75 mg of the penem carboxylate and 7.5 or 0.75 mg of cilastatin per capsule. One of the capsules was orally administered to matured dogs. The blood was collected during the period of from 0.25 to 4 hours after the administration, and the concentrations of the free acid of the penem in plasma samples were measured by HPLC. Further, urine samples were collected until 24 hours after the administration and the concentrations of the free acid of the penem in the urine samples were measured by HPLC.
The area under the concentration:time curve (AUCpO) Of the compound contained in the plasma after its oral administration was compared to the area under the concentration:time curve (AUCiv) when the penemcarboxylate alone was intravenously administered at 10 mg/Kg and, assuming AUCiv be 100%, the percentage of AUCpo was calculated in accordance with the following formula and recorded as Oral Absorption Percentage A. Similarly, assuming that the percentage of excretion of the above penemcarboxylate into urine (Uiv) upon its intravenous administration at 10 mg/Kg be 100%, Oral Absorption Percentage B was calculated in accordance with the following formula from the percentage of excretion of the penemcarboxylate into urine upon its oral administration (Upo).
Oral absorption A (%)=AUCpo/AUCiv×10/75×100
Oral absorption B (%)=Upo/Uiv×100

[6] = Plasma concentration of penem in rats, oral penem with oral N-acetyl-L-cysteine (Example 8); assay type: in vivo, Sprague-Dawley male rats; conditions: rat, 57.1 mg/kg, oral 57.1 mg (titer)/Kg
Protocol: Seven-week-old Sprague-Dawley male rats were orally administered with 57.1 mg (titer)/Kg of sodium (1'R,2"R,5R,6S)-6-(1'-hydroxyethyl)-2-(2"-tetrahydrofuranyl)penem-3-carboxylate 2.5 hydrate. At the same time, N-acetyl-L-cysteine was orally administered at 57.1 mg/Kg. The blood was collected during the period of from 0.1 to 2.0 hours after the administration.
The concentrations of the free acid of the penem in plasma samples were measured by high performance liquid chromatography (HPLC) to determine the highest concentration in plasma and the area under the plasma concentration: time curve (AUC).

[7] = Plasma concentration of penem in rats, oral penem with oral glutathione (Example 6); assay type: in vivo, Sprague-Dawley male rats; conditions: rat; for AUC at 2 h / Cmax: plasma, po, 57.1 mg/kg, oral 57.1 mg (titer)/Kg
Protocol: as §1, with “glutathione” for “cilastatin”, “57.1” for “7.17, 0.717”, “5.71” for “0.0717”, “2.0” for “1.5”

[8] = single administration (penem alone)
[9] = single administration (penem alone), read-out: Highest concentration in plasma
[10] = penem:glutathione molar ratio 11:1
[11] = penem:glutathione molar ratio 11:1, read-out: Highest concentration in plasma

AUC at 4 h ([1]; oral capsule 75 mg (titer), penem:glutathione molar ratio 1.1:1): 33700 ng·h/mL
Cmax ([1]; oral capsule 75 mg (titer), penem:glutathione molar ratio 1.1:1, read-out: Highest concentration in plasma): 22700 ng/mL
Cmax ([1]; oral, single administration (penem alone), read-out: Highest concentration in plasma): 11600 ng/mL
AUC at 4 h [1, 8]: 17700 ng·h/mL
dose excreted at 24 h ([1]; urine, oral, single administration (penem alone), up to 24 hours, read-out: Excretion into urine): 16.7%
Increase of oral absorption percentage relative to single administration ([2]; oral, cilastatin 1/2000 of the penem carboxylate): 2.5 times
AUC at 2 h ([2]; penem:cilastatin molar ratio 1:1): 25900 ng·h/mL
Cmax ([2]; penem:cilastatin molar ratio 1:1, read-out: Highest concentration in plasma): 12400 ng/mL
bioavailability ([2]; penem:cilastatin molar ratio 1:1, vs AUCiv): 114%
AUC at 2 h ([2]; penem:cilastatin molar ratio 10:1): 19600 ng·h/mL
Cmax ([2]; penem:cilastatin molar ratio 10:1, read-out: Highest concentration in plasma): 12700 ng/mL
bioavailability ([2]; penem:cilastatin molar ratio 10:1, vs AUCiv): 86.3%
AUC at 2 h ([2]; penem:cilastatin molar ratio 100:1): 21100 ng·h/mL
Cmax ([2]; penem:cilastatin molar ratio 100:1, read-out: Highest concentration in plasma): 8680 ng/mL
bioavailability ([2]; penem:cilastatin molar ratio 100:1, vs AUCiv): 93%
AUC at 2 h ([2]; penem:cilastatin molar ratio 300:1): 18300 ng·h/mL
Cmax ([2]; penem:cilastatin molar ratio 300:1, read-out: Highest concentration in plasma): 7890 ng/mL
bioavailability ([2]; penem:cilastatin molar ratio 300:1, vs AUCiv): 80.3%
AUC at 2 h ([2]; penem:cilastatin molar ratio 600:1): 14900 ng·h/mL
Cmax ([2]; penem:cilastatin molar ratio 600:1, read-out: Highest concentration in plasma): 8080 ng/mL
bioavailability ([2]; penem:cilastatin molar ratio 600:1, vs AUCiv): 65.6%
AUC at 2 h ([2]; penem:cilastatin molar ratio 1000:1): 12200 ng·h/mL
Cmax ([2]; penem:cilastatin molar ratio 1000:1, read-out: Highest concentration in plasma): 6890 ng/mL
bioavailability ([2]; penem:cilastatin molar ratio 1000:1, vs AUCiv): 53.7%
AUC at 2 h ([2]; penem:cilastatin molar ratio 2000:1): 10900 ng·h/mL
Cmax ([2]; penem:cilastatin molar ratio 2000:1, read-out: Highest concentration in plasma): 7690 ng/mL
bioavailability ([2]; penem:cilastatin molar ratio 2000:1, vs AUCiv): 48.1%
AUC at 2 h [2, 8]: 4420 ng·h/mL
Cmax [2, 9]: 4810 ng/mL
bioavailability ([2]; single administration (penem alone), vs AUCiv): 19.4%
Increase of AUC relative to single administration ([3]; oral, glutathione 1/110 of the penemcarboxylate): 1.2 times
AUC at 4 h [3, 10]: 25400 ng·h/mL
Cmax [3, 11]: 18000 ng/mL
AUC at 4 h ([3]; penem:glutathione molar ratio 110:1): 21900 ng·h/mL
Cmax ([3]; penem:glutathione molar ratio 110:1, read-out: Highest concentration in plasma): 14700 ng/mL
dose excreted at 24 h ([3]; penem:glutathione molar ratio 11:1, up to 24 hours): 20.7%
dose excreted at 24 h ([3]; penem:glutathione molar ratio 110:1, up to 24 hours): 19.9%
Increase of AUC relative to single administration ([4]; oral, at each cilastatin dosage (7.17, 0.717, 0.0717 mg/Kg)): 2.8-4.8 times
AUC at 1.5 h ([4]; cilastatin 0 (penem alone)): 4420 ng·h/mL
Cmax ([4]; cilastatin 0 (penem alone)): 4810 ng/mL
AUC at 1.5 h ([4]; cilastatin 0.0717 mg/Kg oral): 12200 ng·h/mL
Cmax ([4]; cilastatin 0.0717 mg/Kg oral): 6890 ng/mL
AUC at 1.5 h ([4]; cilastatin 0.717 mg/Kg oral): 21100 ng·h/mL
Cmax ([4]; cilastatin 0.717 mg/Kg oral): 8680 ng/mL
AUC at 1.5 h ([4]; cilastatin 7.17 mg/Kg oral): 19600 ng·h/mL
Cmax ([4]; cilastatin 7.17 mg/Kg oral): 12700 ng/mL
Increase of oral absorption percentage (from AUC) relative to penemcarboxylate alone [5]: 2.3 times
Oral absorption A [5]: 33.9%
Increase of oral absorption percentage (from excretion into urine) relative to penemcarboxylate alone ([5]; 1440 min): 2.3 times
Oral absorption B ([5]; 24 h): 38.6%
Highest concentration in plasma ([5]; po): 11.86 µg/mL
AUC ([5]; po, 4 h): 18620 ng·h/mL
Excretion into urine ([5]; po, 24 h): 16.58%
AUC at 2 h ([6]; penem:N-acetyl-L-cysteine molar ratio 0.6:1): 5240 ng·h/mL
Cmax ([6]; penem:N-acetyl-L-cysteine molar ratio 0.6:1, read-out: Highest concentration in plasma): 6790 ng/mL
AUC at 2 h [6, 8]: 2520 ng·h/mL
Cmax [6, 9]: 3290 ng/mL
Increase of AUC relative to penem alone ([7]; oral, glutathione 1/11 of the penem): 1.2 times
AUC at 2 h ([7]; penem:glutathione molar ratio 1.1:1): 6160 ng·h/mL
Cmax ([7]; penem:glutathione molar ratio 1.1:1, read-out: Highest concentration in plasma): 5840 ng/mL
AUC at 2 h [7, 10]: 5540 ng·h/mL
Cmax [7, 11]: 5030 ng/mL
AUC at 2 h [7, 8]: 4570 ng·h/mL
Cmax [7, 9]: 4340 ng/mL
Compound: C[C@@H](O)[C@H]1C(=O)N2C(C(=O)O)=C([C@H]3CCCO3)S[C@H]12 [sodium (1'R,2"R,5R,6S)-6-(1'-hydroxyethyl)-2-(2"-tetrahydrofuranyl)penem-3-carboxylate 2.5 hydrate]
